Source: paper PMC6220849, “Mechanistic and structural studies of KDM‐catalysed demethylation of histone 1 isotype 4 at lysine 26” (Febs Letters, 2018)
Square brackets hold non-standard residues; d marks the D form. Ends that are not written are not given here. Lys(Me3) = C[N+](C)(C)CCCC[C@H](N)C(=O)O

Experiments:
Type in all cases: biochemical, human
KDM2A (KDM2A1–557) = test: MALDI-TOF MS demethylation activity assay, KDM2A; set-up: key: 🟢: Indicates that clear demethylation activity was observed; 🟡: Indicates that low level demethylation activity was observed (<10% conversion after 1 h); 🔴: Indicates no activity under the stated conditions (1 μM KDM, 10 μM peptide); 🟡*: *Indicates demethylation activity was only observed with 5 μM KDM; conditions: peptide as substrate, 1 μM KDM, 10 μM peptide, 50 mM HEPES pH 7.5, Fe(II) 10 μM, ascorbate 100 μM, 2OG 200 μM, 1 h at 37 °C
Experimental: (§1) Recombinant proteins (1 μM) were incubated with peptides (10 μM, sequences are given in Table S1) in 50 mM HEPES, pH 7.5 with addition of Fe(II) ammonium sulfate (10 μM), sodium ascorbate (100 μM) and 2‐oxoglutaric acid (200 μM). Reactions with KDM3A and KDM7A also contained 1 mM tris(2‐carboxyethyl)phosphine hydrochloride. No enzyme reactions were included as negative controls. Reactions were incubated for 1 h at 37 °C before being quenched with 1 : 1 (v/v) methanol. Analysis was carried out by MALDI‐TOF MS (Bruker, Billerica, MA, USA), with demethylation observed as mass shifts of 14 Da.
(§2) The propensity of human JmjC KDMs to catalyse demethylation at H1.4K26 was investigated using recombinant forms of the catalytic domains of representatives of each human JmjC KDM subfamily (KDM2‐7) and fragment peptides (Table S1) 37. Three peptides with identical sequences, corresponding to residues 18–32 of histone H1.4 (H2N‐[…]‐CONH2), but containing either a N ^ε‐tri‐, di‐ or monomethyllysine at K26 were synthesised (Fig. 1B and Table S1). Activity assays monitoring JmjC KDM‐catalysed demethylation of the peptides were then carried out; samples were prepared containing each peptide, 2‐oxoglutarate (2OG), ferrous iron, ascorbate and individual representatives from each JmjC KDM subfamily (KDM2A 38, KDM3A 21, KDM4E 22, KDM5C 39, 40, KDM6B 41, KDM7A 42).

KDM4A (KDM4A1–359) = test: MALDI-TOF MS demethylation activity assay, KDM4A; set-up: key: 🟢: Indicates that clear demethylation activity was observed; 🟡: Indicates that low level demethylation activity was observed (<10% conversion after 1 h); 🔴: Indicates no activity under the stated conditions (1 μM KDM, 10 μM peptide); 🟡*: *Indicates demethylation activity was only observed with 5 μM KDM; conditions: peptide as substrate, 1 μM KDM, 10 μM peptide, 50 mM HEPES pH 7.5, Fe(II) 10 μM, ascorbate 100 μM, 2OG 200 μM, 1 h at 37 °C
Experimental: as §1
(§3) Given the activity observed with KDM4E and KDM7A, we decided to investigate the intra‐subfamily conservation of this demethylation activity. The demethylation activity of the other subfamily members (KDM4A‐D and KDM7B) was therefore screened. […] Note that as with H3K9, demethylation of the monomethylated H1.4K26 peptide was only observed with KDM4E, under the stated conditions 24.

KDM4C (KDM4C1–359) = test: MALDI-TOF MS demethylation activity assay, KDM4C; set-up: key: 🟢: Indicates that clear demethylation activity was observed; 🟡: Indicates that low level demethylation activity was observed (<10% conversion after 1 h); 🔴: Indicates no activity under the stated conditions (1 μM KDM, 10 μM peptide); 🟡*: *Indicates demethylation activity was only observed with 5 μM KDM; conditions: peptide as substrate, 1 μM KDM, 10 μM peptide, 50 mM HEPES pH 7.5, Fe(II) 10 μM, ascorbate 100 μM, 2OG 200 μM, 1 h at 37 °C
Experimental: as §1, §3

KDM5C (KDM5C1–765) = test: MALDI-TOF MS demethylation activity assay, KDM5C; set-up: key: 🟢: Indicates that clear demethylation activity was observed; 🟡: Indicates that low level demethylation activity was observed (<10% conversion after 1 h); 🔴: Indicates no activity under the stated conditions (1 μM KDM, 10 μM peptide); 🟡*: *Indicates demethylation activity was only observed with 5 μM KDM; conditions: peptide as substrate, 1 μM KDM, 10 μM peptide, 50 mM HEPES pH 7.5, Fe(II) 10 μM, ascorbate 100 μM, 2OG 200 μM, 1 h at 37 °C
Experimental: as §1, §2

KDM6B (KDM6B1141–1590) = test: MALDI-TOF MS demethylation activity assay, KDM6B; set-up: key: 🟢: Indicates that clear demethylation activity was observed; 🟡: Indicates that low level demethylation activity was observed (<10% conversion after 1 h); 🔴: Indicates no activity under the stated conditions (1 μM KDM, 10 μM peptide); 🟡*: *Indicates demethylation activity was only observed with 5 μM KDM; conditions: peptide as substrate, 1 μM KDM, 10 μM peptide, 50 mM HEPES pH 7.5, Fe(II) 10 μM, ascorbate 100 μM, 2OG 200 μM, 1 h at 37 °C
Experimental: as §1, §2

KDM7A (KDM7A38–480) = test: MALDI-TOF MS demethylation activity assay, KDM7A; set-up: key to demethylation activity on methylated H1.4 peptide: 🟢: Indicates that clear demethylation activity was observed; 🟡: Indicates that low level demethylation activity was observed (<10% conversion after 1 h); 🔴: Indicates no activity under the stated conditions (1 μM KDM, 10 μM peptide); 🟡*: *Indicates demethylation activity was only observed with 5 μM KDM; conditions: peptide as substrate; MALDI-TOF MS; 1 μM KDM, 10 μM peptide, 50 mM HEPES pH 7.5, Fe(II) 10 μM, ascorbate 100 μM, 2OG 200 μM, 1 mM TCEP, 1 h at 37 °C
Experimental: as §1, §2
N ^ε‐Trimethylated H3K4 binds to the plant homeobox domain of KDM7B, targeting the N ^ε‐dimethyllysine at H3K9 to the catalytic domain, and thus promoting demethylation 29, 44. To test whether similar targeting may occur with H1.4, promoting activity at H1.4K26, an H1.4 peptide was synthesised containing di‐N ^ε‐methyllysine at K26 and tri‐N ^ε‐methyllysine at K21 (i.e. at the equivalent position in the sequence to K4 in the H3 peptide, Fig. 1B, Table S1). Monomethylation at H1.4K21 has previously been observed by proteomic mass spectrometry 45. With the aim of enhancing activity, the enzyme concentration was increased from 1 μM to 5 μM, and time course analyses were conducted with both KDM7A and KDM7B, both with the new peptide (H1.4(18–32)K21me3K26me2) and the H1.4 peptides methylated only at K26 (Fig. 2B). […] Thus, it appears unlikely that N ^ε‐trimethylation at H1.4K21 promotes demethylation at H1.4K26 by KDM7B.

KDM4A = test: 1H NMR activity assay (time course); conditions: KDM4A 10 μM, peptide 400 μM, 2OG 400 μM, Fe(II) 100 μM, ascorbate 1 mM, 50 mM ammonium formate pH 7.5, 500 mM NaCl, 700 MHz
Experimental: The NMR analyses employed a Bruker Avance III 700 MHz spectrometer with an inverse TCI cryoprobe optimised for ^1H observation and were carried out as previously described 6. Samples (KDM4A (10 μM), 2OG (400 μM), H1.4(18–32)K26me3 peptide (400 μM), Fe(II) ammonium sulfate (100 μM) and ascorbate (1 mM) in 50 mM ammonium formate, pH 7.5, 500 mM NaCl in 10% v/v D2O) were prepared in a microcentrifuge tube (total volume = 75 μL), before being transferred to an NMR tube. The samples were then analysed over time using automated routines; each time‐point corresponded to one experiment accumulating 16 transients (89 s total acquisition time per experiment). The solvent resonance was depleted by excitation sculpting using a 180° sinc pulse (duration = 2 ms) 30.
Studies then focused on determining the proficiency of H1.4K26 demethylation by the KDM4 enzymes.

**Q.** Which “demethylation activity on methylated H1.4 peptide” value (“demethylation activity” below) (KDM2A (KDM2A1–557)) does the source give for “TPVKKKAR[Lys(Me3)]SAGAAK [H1.4(18–32)K26me3, peptide of residues 18–32 of histone H1.4 with N ε-trimethyllysine at K26]” here?
**A.** 🔴

**Q.** And the “demethylation activity” value (KDM4A (KDM4A1–359))?
**A.** 🟢

**Q.** And the “demethylation activity” value (KDM4C (KDM4C1–359))?
**A.** 🟢

**Q.** What about the “demethylation activity” value (KDM5C (KDM5C1–765)) of the same substance?
**A.** 🔴

**Q.** What about the “demethylation activity” value (KDM6B (KDM6B1141–1590)) of the same substance?
**A.** 🔴

**Q.** What about the “demethylation activity” value (KDM7A (KDM7A38–480)) of the same substance?
**A.** 🔴

**Q.** What about the “demethylation of the Kme3 residue by 1H NMR (result in words)” value (KDM4A) of the same substance?
**A.** time‐dependent demethylation
